Results: PubChem BioAssay AID624437 (The Scripps Research Institute Molecular Screening Center, 2012)
Active and inactive are the calls of the source.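 The calls were made as follows: active = PP1 inhibition of at least 30% at 50 µM, though none qualified; inactive = the rest.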

Target: Serine/threonine-protein phosphatase PP1-alpha catalytic subunit (Homo sapiens) (UniProt P62136)
Experiment: inhibitors of PP1 histone dephosphorylation – biochemical, 33P-phosphohistone, radiolabel, single concentration, round 5, selectivity assay for PP5 inhibitor project, late-stage follow-up (AID 624437)
Conditions: purified PP1alpha, 33P-phosphohistone dephosphorylation, scintillation; at 50 µM; stronger effect = higher value

Serine/threonine-protein phosphatase PP1-alpha catalytic subunit (Homo sapiens), sequence (P62136 whole entry, looked up): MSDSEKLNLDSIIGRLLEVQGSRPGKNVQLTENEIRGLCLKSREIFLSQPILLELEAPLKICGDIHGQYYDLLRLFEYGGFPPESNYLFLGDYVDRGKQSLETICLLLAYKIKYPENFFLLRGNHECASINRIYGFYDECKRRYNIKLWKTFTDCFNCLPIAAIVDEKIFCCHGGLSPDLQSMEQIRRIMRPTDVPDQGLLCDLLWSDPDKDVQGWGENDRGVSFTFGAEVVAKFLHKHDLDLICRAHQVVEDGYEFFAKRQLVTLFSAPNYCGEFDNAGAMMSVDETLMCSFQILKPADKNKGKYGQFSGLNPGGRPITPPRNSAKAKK

SMILES	inhibition
O=C(O)c1n[nH]nc1-c1ccccc1O	10.9% (inactive)
O=C(O)c1n[nH]nc1-c1ccccc1F	20.5% (inactive)
O=C(O)c1n[nH]nc1-c1cccc(F)c1	10.3% (inactive)
COc1ccccc1-c1n[nH]nc1C(=O)O	23.3% (inactive)

The next lines start with the values.

inhibition	SMILES
1.04% (inactive)	COc1ccc(-c2n[nH]nc2C(=O)O)cc1
11.1% (inactive)	COc1cccc(-c2n[nH]nc2C(=O)O)c1
10.4% (inactive)	O=C(O)c1n[nH]nc1-c1ccc(F)cc1
